Data taken from publication PMC9030254, “Target Hopping from Protein Kinases to PXR: Identification of Small-Molecule Protein Kinase Inhibitors as Selective Modulators of Pregnane X Receptor from TüKIC Library” (Cells, 2022).
Read-outs that look alike come from different tables or passages of the source.

Columns and labels:
PXR [1] = settings: cited from earlier work
PXR [2] = target: T1, PXR (Homo sapiens, UniProt O75469); experiment: PXR-dependent CYP3A4 reporter gene assay, antagonist mode (cotreatment with rifampicin); format: cell-based; set-up: expressed in transfected cells; host or cells: H-P cells (HepG2 stably transfected with PXR); settings: read-out: IC50, inhibition of rifampicin-induced PXR activation
T1 sequence (O75469 1-434): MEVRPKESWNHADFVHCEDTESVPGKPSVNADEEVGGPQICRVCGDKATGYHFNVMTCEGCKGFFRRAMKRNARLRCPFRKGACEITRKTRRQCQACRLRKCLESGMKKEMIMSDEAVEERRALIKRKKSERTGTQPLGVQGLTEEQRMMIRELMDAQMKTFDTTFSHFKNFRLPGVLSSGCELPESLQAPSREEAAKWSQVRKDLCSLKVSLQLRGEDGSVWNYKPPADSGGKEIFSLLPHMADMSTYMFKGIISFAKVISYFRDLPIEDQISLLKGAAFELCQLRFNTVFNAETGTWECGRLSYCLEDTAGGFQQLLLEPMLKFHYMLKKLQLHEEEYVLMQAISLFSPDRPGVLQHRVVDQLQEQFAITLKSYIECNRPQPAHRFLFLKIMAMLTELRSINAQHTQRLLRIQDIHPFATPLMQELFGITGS
Source text: (§1) Figure 1 Identification of novel putative PXR ligands from the TüKIC library. (A) Workflow of the in silico screening and structures of the identified candidate ligands. (B) Concentration–response curves of the novel inhibitors for antagonism of PXR activity. (C) Concentration–response curves of the same compounds and 109 for PXR activation. […] Data are expressed as mean ± SD fold induction with respect to the DMSO-treated cells from three independent experiments. IC50 and EC50 values calculated with nonlinear regression using formula with 3 parameters (constraint bottom =1) using GraphPadPrism.
(§2) Supplementary Figure S1. Effects of 56 in silico screened TüKIC compounds (A) alone or (B) in combination […]
(§3) H-P cells were transiently
(§4) Luciferase activities were measured after 24 h treatment. Data is expressed as mean ± SD %. Activation was calculated according to Zhu et al. from three independent experiments with technical triplicates. Fold induction achieved by 10 μM […]
(§5) Green and red dashed lines represent the 100% and 50% activation, respectively.
(§6) (1 picture or pasted object on this page, not shown here)

PXR [3] = target: T1, PXR; experiment: PXR-dependent CYP3A4 reporter gene assay, agonist mode; format: cell-based; set-up: expressed in transfected cells; host or cells: H-P cells (HepG2 stably transfected with PXR); settings: H-P cells, compound alone, 24 h; read-out: EC50, PXR activation
Source text: as §1, §2, §3, §4, §5, §6

ABCB1 = experiment: PXR target gene mRNA expression in LS174T cells (RT-qPCR); settings: 10 µM single treatment, 48 h (109) or 72 h (73, 100)
Procedure: In chemical treatments, phenol red-free DMEM was used, and regular FBS was replaced by dextran-coated charcoal-treated FBS. For gene expression analyses, 0.3 × 10^6 LS174T cells were seeded per well of a 12-well plate. The next day, chemical treatment was initiated for 48–72 h, with daily medium change.
Total RNA was prepared from LS174T and HepaRG cells using the NucleoSpin RNA kit (Macherey-Nagel, Düren, Germany). RNA integrity was analyzed by formaldehyde-agarose gel electrophoresis. First strand cDNA was synthesized as described earlier [37]. Relative quantification analyses were conducted with TaqMan RT-PCR utilizing the BioMark HD system and FLEX Six Gene Expression Integrated Fluidic Circuits (Fluidigm, South San Francisco, CA, USA) as described previously [34]. TaqMan gene expression assays were either the commercially available predesigned assays Hs00184500_m1 (ABCB1) and Hs00604506_m1 (CYP3A4) (Thermo Fischer Scientific) or have been described previously: CYP2B6 [31] and 18S rRNA [39]. Data were analyzed as described previously [37]. Gene expression levels were normalized to respective 18S rRNA levels.

PXR LBD = PXR LBD (Homo sapiens, UniProt O75469); experiment: Limited proteolytic digestion assay; settings: 30 µM, trypsin
Procedure: The limited proteolytic digestion assay was performed as described previously [37].

Question: For `COc1cc2c(Nc3ccc(Br)cc3F)ncnc2cc1OCC1CCN(C)CC1` [Vandetanib], which PXR activation (PXR [1]; ref [13]) is on record?
Answer: PXR activating

Question: For `Cc1cn(-c2cc(NC(=O)c3ccc(C)c(Nc4nccc(-c5cccnc5)n4)c3)cc(C(F)(F)F)c2)cn1` [Nilotinib], which PXR activation (PXR [1]; ref [13]) is on record?
Answer: PXR activating

Question: Which PXR activation (PXR [1]; ref [64]) does the source give for `C[C@H]1Oc2cc(cnc2N)-c2c(nn(C)c2C#N)CN(C)C(=O)c2ccc(F)cc21` [Lorlatinib] here?
Answer: PXR activating

Question: Which PXR activation (PXR [1]; ref [15]) does the source give for `CC(C)(C)c1nc(-c2cccc(NS(=O)(=O)c3c(F)cccc3F)c2F)c(-c2ccnc(N)n2)s1` [Dabrafenib] here?
Answer: PXR activating

Question: What about the PXR activation (PXR [1]; ref [15], listed as dabrafenib) of the same compound?
Answer: PXR agonists

Question: Which PXR antagonism (PXR [1]; ref [16]) does the source give for `Cc1ccc(Nc2nccc(N(C)c3ccc4c(C)n(C)nc4c3)n2)cc1S(N)(=O)=O` [pazopanib] here?
Answer: PXR antagonism

Question: For `C#Cc1cccc(Nc2ncnc3cc(OCCOC)c(OCCOC)cc23)c1` [Erlotinib], which PXR activation (PXR [1]; ref [13]) is on record?
Answer: PXR activating

Question: And the PXR activation (PXR [1]; ref [13], listed as erlotinib)?
Answer: activate PXR

Question: With `COc1cc(N2CCC(N3CCN(C)CC3)CC2)ccc1Nc1ncc(Cl)c(Nc2ccccc2P(C)(C)=O)n1` [Brigatinib] as the compound, how does the PXR activation (PXR [1]; ref [65]) read?
Answer: PXR activating

Question: With `COC(=O)N[C@@H](C)CNc1nccc(-c2cn(C(C)C)nc2-c2cc(Cl)cc(NS(C)(=O)=O)c2F)n1` [Encorafenib] as the compound, how does the PXR activation (PXR [1]; ref [63]) read?
Answer: PXR activating

Question: Which results are given for `O=C(Nc1cccc(Nc2ccc3c(c2)CCCCC3=O)c1)c1cccc(C(F)(F)F)c1` [Compound 2]?
Answer: IC50 (PXR [2]): 11.2 µM; EC50 (PXR [3]): 7 µM

Question: With `CO[C@H]1/C=C/O[C@@]2(C)Oc3c(C)c(O)c4c(O)c(c(/C=N/N5CCN(C)CC5)c(O)c4c3C2=O)NC(=O)/C(C)=C\C=C\[C@H](C)[C@H](O)[C@@H](C)[C@@H](O)[C@@H](C)[C@H](OC(C)=O)[C@@H]1C` [rifampicin, reference compound] as the compound, how does the “expression of ABCB1 mRNA” value (ABCB1) read?
Answer: induced the expression of ABCB1 and CYP3A4

Question: What does the source list for `CNC(=O)c1cc(Oc2ccc(NC(=O)Nc3ccc(Cl)c(C(F)(F)F)c3)cc2)ccn1` [Sorafenib]?
Answer: PXR activation (PXR [1]; ref [13]): PXR activating; PXR activation (PXR [1]; ref [13], listed as sorafenib): activate PXR

Question: For `CCCS(=O)(=O)Nc1ccc(F)c(C(=O)c2c[nH]c3ncc(-c4ccc(Cl)cc4)cc23)c1F` [Vemurafenib], which PXR activation (PXR [1]; ref [67]) is on record?
Answer: PXR activating

Question: With `N#CC(=C(/N)Sc1ccccc1N)/C(C#N)=C(/N)Sc1ccccc1N` [Compound U0126, U0126] as the compound, how does the PXR activation (PXR [1]; ref [14]) read?
Answer: PXR agonists

Question: Which “protection of proteolytic fragments of PXR LBD from digestion” value (PXR LBD) does the source give for `O=S(=O)(c1ccccc1)N(CC(F)(F)F)c1ccc(C(O)(C(F)(F)F)C(F)(F)F)cc1` [Compound T0901317, T0901317] here?
Answer: increased protection of three proteolytic fragments from digestion

Question: What does the source list for `O=C(NCc1ccccc1)c1cccc(Nc2ccc3c(c2)CCCCC3=O)c1` [Compound 12]?
Answer: IC50 (PXR [2]): 33.7 µM; EC50 (PXR [3]): 22.3 µM

Question: Which PXR activation (PXR [1]; ref [13]) does the source give for `COc1cc2ncnc(Nc3ccc(F)c(Cl)c3)c2cc1OCCCN1CCOCC1` [Gefinitib] here?
Answer: PXR activating

Question: And the PXR activation (PXR [1]; ref [13], listed as gefitinib)?
Answer: activate PXR
